The numbers were not newly measured in patent publication US8466198B2, “Compositions comprising creatine salts and methods of use thereof” (priority 2008, dated 2013), which cites them from elsewhere.

In the case of `CN(CC(=O)O)C(=N)N.O` [creatine monohydrate], the “increase in body mass” value (first week of loading) is 1-2 kilograms. Where the note is “short term supplementation”, the “improvement of maximal power/strength” value is 5-15%, the “improvement of single effort sprint performance” value is recorded as 1-5%, the “improvement of work performed during exercise of maximal effort muscle contractions” value is on record as 5-15% and the “improvement of work performed during repetitive sprint performance” value was 5-15%.
As for `CN(CC(=O)O)C(=N)N` [Creatine], the “average gain in athletic performance” value (creatine ingestion, depending on the measured variable) is listed as 10 to 15%.
